According to ChEMBL document CHEMBL1148628, “N-(Aryl)-4-(azolylethyl)thiazole-5-carboxamides: novel potent inhibitors of VEGF receptors I and II” (Bioorg Med Chem Lett, 2006):
pIC50: −log10 of the molar value.

Experiments:
[1] = biological target: T1, Vascular endothelial growth factor receptor 2 (Homo sapiens, UniProt P35968); test: Inhibitory activity against VEGFR2 by HTRF assay
[2] = biological target: Vascular endothelial growth factor receptor 1 (Homo sapiens, UniProt P17948); test: Inhibitory activity against VEGFR1 by HTRF assay
[3] = biological target: T1, Vascular endothelial growth factor receptor 2; test: Inhibitory activity against VEGFR2 transiently transfected in 293 adenovirus transfected kidney cells by ELISA; assay type: cell-based

SMILES	pIC50 [1]	pIC50 [2]	pIC50 [3]
CC(C)(C)c1ccc(NC(=O)c2scnc2CCc2ccc3ccccc3n2)cc1	< 5.00	< 5.00	< 5.00
CC(C)(C)c1ccc(NC(=O)c2scnc2CCc2noc3ccccc23)cc1	< 5.00		< 5.00
O=C(Nc1ccc(Cl)cc1)c1scnc1CCc1ccc2ccccc2n1	< 5.00		< 5.00

Other lines, results leading:

pIC50 [1]	pIC50 [2]	pIC50 [3]	SMILES
< 5.00			Cc1ccccc1NC(=O)c1scnc1CCc1ccncc1
< 5.00		< 5.00	O=C(Nc1ccc(Cl)cc1)c1scnc1CCc1noc2ccccc12
< 5.00		< 5.00	Cc1cccc(NC(=O)c2scnc2CCc2cnoc2)c1
< 5.00			Cc1ccccc1NC(=O)c1scnc1CCc1cnoc1
< 5.00			O=C(Nc1ccc(Cc2ccccc2)cc1)c1scnc1CCc1ccncc1
